The text below walks through data of patent US20070244060A1, “Therapeutic Agent for Autoimmune Disease” (priority 2003, published 2007).

Common to all, as to assay type: cell-based, human
The test system of one data set is rheumatoid synoviocytes. Put plainly: WST-8 assay of proliferation activity of rheumatoid synoviocytes after siRNA treatment. Particulars: 96 hours after siRNA treatment; anti-GFP siRNA negative control = 100; FIG. 3A. Here is the method: The experiments were carried out as follows. Rheumatoid synoviocytes were seeded at 160 each into a 96-well, flat-bottom plate from the Falcon Co. After 24 hours, treatment was carried with anti-Synoviolin siRNA or anti-GFP siRNA, and the proliferation activity was investigated after an additional 96 hours. The GFP was used in this case as a negative control. The degree of cell proliferation was measured using a WST-8 assay from Dojindo Laboratories.

The subject of another data set is synoviocytes. Put plainly: Apoptosis induction in synoviocytes, nuclear condensation by Hoechst 33258 DNA staining. The settings on record: FIG. 3B. Here is the method:
Then, synoviocytes were seeded at 2500 each to an eight-well Lab-Tek Chamber from the Nunc Company and were incubated for 24 hours in an incubator under 5% CO2 at 37° C. 67 nM siRNA was thereafter introduced into the synoviocytes using TransIT-TKO transfection reagent from the Miru Bio Corporation. After additional incubation for 48 hours in an incubator under 5% CO2 at 37° C., 50 μg/mL tunicamycin was added, followed by incubation for 48 hours under the same conditions. The cells were then fixed and nuclear condensation was confirmed by DNA staining with Hoechst 33258.

Data set [1] relates to rheumatoid synoviocytes (RA). Put plainly: ER stress-inducible apoptosis, ssDNA Apoptosis ELISA, rheumatoid synoviocytes. The settings on record: RA synoviocytes (5 cases), 24 hours, FIG. 5. Here is the method:
(§1) The experiments were carried out as follows. […] Endoplasmic reticulum stress-inducible apoptosis was induced using tunicamycin at concentrations of 10, 30, and 100 μg/mL. Apoptosis was quantitated using the ssDNA Apoptosis ELISA kit from Chemicon International, Inc.

In data set [2] the test system is osteoarthritis synoviocytes (OA). Description: ER stress-inducible apoptosis, ssDNA Apoptosis ELISA, osteoarthritis synoviocytes. The settings on record: OA synoviocytes (5 cases), 24 hours, FIG. 5. Here is the method: as §1

Take “anti-Synoviolin siRNA: small interfering RNA against the Synoviolin gene; sense CGUUCCUGGUACGCCGUCAUU (SEQ ID NO: 1), antisense UGACGGCGUACCAGGAACGUU (SEQ ID NO: 2) (listed as RNA, chemistry not given here)”: in the data set with rheumatoid synoviocytes, the “proliferation activity of rheumatoid synoviocytes (GFP=100)” value is on record as “about 60%”. Further, the “apoptosis induction in synoviocytes, co-use of siRNA with tunicamycin” value with synoviocytes (67 nM siRNA 48 hours, then 50 μg/mL tunicamycin 48 hours) is on record as “increased”.
On to tunicamycin, for which the “apoptosis induction in synoviocytes” value in the data set with synoviocytes (50 μg/mL tunicamycin, 48 hours) was “caused apoptosis induction”. Moreover, the “apoptosis (ssDNA Apoptosis ELISA)” value is 0.73±0.30 in data set [1] (tunicamycin 10 μg/mL); 0.84±0.35 in data set [1] (tunicamycin 30 μg/mL); 0.81±0.28 in data set [1] (tunicamycin 100 μg/mL); 2.18±1.19 in data set [2] (tunicamycin 10 μg/mL); 2.76±1.84 in data set [2] (tunicamycin 30 μg/mL); 3.65±2.53 in data set [2] (tunicamycin 100 μg/mL).
